From patent US9980979B2, “Compounds and methods for enhancing erythropoiesis” (NATIONAL YANG-MING UNIVERSITY, priority 2008, dated 2018)

What was measured:
[1] = tested on: erythroid progenitor cells (bone marrow cells); test: burst-forming-units-erythroid (BFU-E) assay on bone marrow cells in culture; format: cell-based, C57BL/6JNarl mice; details: 0.5~12.5 μg/ml, 9 days, with 2 U/ml Epo and 10 ng/ml IL-3; versus 0 concentration; FIG. 2
Experimental: To investigate the effect of “Compound A” on erythroid progenitor cells, burst-forming-units-erythroid (BFU-E) assay was conducted according to the procedures described in Corazza et al. (2004) and Jin et al. (2003) with modifications. Briefly, 6-week-old C57BL/6JNarl mice were purchased from the National Laboratory Animal Center (NLAC, Taiwan). Bone marrow cells were isolated from the mice, and the cell suspension was adjusted to about 8.3×10^4 cells/ml in α-MEM containing 15% (v/v) FBS (Gibco), 1% (v/v) BSA (Sigma-Aldrich), 0.8% (w/v) methylcellulose (Sigma-Aldrich), 10 μM 2-mercaptoethanol (Sigma-Aldrich), 2 U/ml Epo (Recormon Epoetin, Roche), and 10 ng/ml IL-3 (Sigma-Aldrich). Cells were plated at approximately 7.5×10^4 cells/well in 24-well plates (Falcon). They were incubated with different concentrations of Compound A (0, 0.1, 0.5, 2.5 and 12.5 μg/ml), respectively, for 9 days in a humidified 37° C. incubator containing 5% CO2-95% air. The colonies were stained with 3-(4,5-dimethylthiazol-2-yl)-2,5-diphenyl-tetrazolium bromide (50 m/50 μl/well) (MTT; Sigma-Aldrich). Plates were photographed while colonies of more than 50 cells were counted. Results were expressed as mean±S.E. (n=3). Statistical significance was evaluated by Student's t test (*P<0.05 and **P<0.01 versus control group (i.e., 0 concentration)).

[2] = tested on: cisplatin-induced acute renal failure animal model; test: cisplatin-induced acute renal failure animal model: red blood cell count and blood urea nitrogen; format: in vivo, C57BL/6JNarl mice
Experimental: The effects of Compound A treatment on cisplatin-induced acute renal failure animal model were investigated. C57BL/6JNarl mice (8-week-old) were purchased from the National Laboratory Animal Center (NLAC, Taiwan). Cisplatin (Sigma-Aldrich) was dissolved in normal saline (0.9% (w/v) sodium chloride, Sigma-Aldrich) at a concentration of 1 mg/ml, and injected into mice intraperitoneally (i.p.) according to the following schedule: day 1, 7 mg/kg; day 5, 6 mg/kg; and day 9, 6 mg/kg. For cisplatin-untreated normal mice group, normal saline injections of corresponding volumes were given i.p. in parallel. At day 13, serum samples were collected and blood urea nitrogen (BUN) contents were assayed. Cisplatin-injected mice with BUN levels more than 100 mg/dl and the cisplatin-untreated normal mice were further divided into 5 groups, 6 mice per group, for feeding with Compound A for 2 weeks: (1) Normal group: Mice were injected with normal saline and followed by feeding with a standard diet; (2) Control group: Mice were injected with cisplatin and followed by feeding with a standard diet; (3) Pomu 10 mg/kg/day group: Mice were injected with cisplatin and followed by feeding with Compound A at the dose of 10 mg/kg/day; (4) Pomu 30 mg/kg/day group: Mice were injected with cisplatin and followed by Compound A at the dose of 30 mg/kg/day; (5) Pomu 90 mg/kg/day group: Mice were injected with cisplatin and followed by Compound A treatment at the dose of 90 mg/kg/day. Blood samples were collected from the retro-orbital sinus of mice at day 0, 5, 10, 13, 18, 23 and 28. Red blood cell (RBC) concentrations were determined by complete blood cell count using Sysmex® Kx-21 hematology analyzer. Blood urea nitrogen (BUN) levels were determined by urease GLDH method (Urea FS, DiaSys). Results were expressed as mean±S.E. (n=5˜6). Statistical significance was evaluated by Student's t test (##P<0.01 versus normal group and **P<0.01 versus control group). […] The horizontal arrow in FIGS. 7 and 8 represents Compound A treatment (mg/Kg/day). […] The results were in agreement with the ability of the Compound A in enhancing erythropoiesis.

bone marrow cells = test: DAF-based hemoglobin colorimetry assay on cultured bone marrow cells from phenylhydrazine-induced anemic mice; format: cell-based, C57BL/6JNarl mice; details: about 0.1 to about 20 μg/ml, 4 days, with 50 mU/ml EPO; **P<0.01 versus control (0 μg/ml); FIG. 1
Experimental: C57BL/6JNarl mice, 8-10 weeks of age, were purchased from the National Laboratory Animal Center (NLAC, Taiwan). Acute hemolytic anemia was induced by a single intraperitoneal (i.p.) injection of phenylhydrazine hydrochloride (Sigma-Aldrich) at a dose of 100 mg/kg in a phosphate buffered saline (PBS). Six days after the injection, bone marrow cells were isolated from mice and cultured according to the procedure described in Worthington et al., (1985) and Rosenthal et al. (1987) with minor modifications. […]
In the next day, different concentrations of compound A (0, 0.1, 0.5, 2.5, 12.5 and 20 μg/ml) were added to the cells, respectively, and incubated for 4 days. The relative levels of hemoglobin were determined using DAF-based hemoglobin colorimetry assay according to Kaiho (1985) and Worthington (1985) with minor modifications. […] The absorbance at 610 nm was measured by Victor 2 1420 Multilable Counter (Wallac, PerkinElmer). Results were expressed as relative index±S.E. (n=6). Statistical significance was evaluated by Student's t test (**P<0.01 versus control group (0 μg/ml)).

Structure (SMILES): OC[C@H]1O[C@@H](Oc2c(O)cc(O)cc2/C=C/c2ccc(O)cc2)[C@H](O)[C@@H](O)[C@@H]1O [Compound A, 2,3,5,4′-tetrahydroxystilbene 2-O-β-D-glucopyranoside]
- number of BFU-E colonies of bone marrow cells [1]: significantly increased the number of BFU-E colonies
- number of red blood cells (RBCs) ([2]; 30~90 mg/kg/day in feed for 2 weeks, time course, FIG. 5): increased the number of red blood cells
- serum BUN levels ([2]; 30~90 mg/kg/day in feed for 2 weeks, time course, FIG. 6): decreased serum BUN levels
- number of RBCs at day 23 ([2]; 30~90 mg/kg/day, day 23, versus control group, FIG. 7): significantly increased the number of RBCs
- serum BUN levels at day 23 ([2]; 30~90 mg/kg/day, day 23, versus control group, FIG. 8): decreasing serum BUN levels
- hemoglobin formation (relative index) (bone marrow cells): significantly enhanced hemoglobin formation
